In experiment [1] the test system is Phosphorylated Ribosomal Protein S6 (RPS6) in THP-1 cells. As to the kind of experiment: THP-1 RPS6 ELISA assay. The settings on record: THP-1 cells, 10 nM MCP-1, phospho-RPS6 ELISA, read-out: PI3Kγ_THP1_RPS6_ELISA IC50. In kind it is cell-based, Human. An excerpt: Example A. THP-1 RPS6 ELISA Assay
To measure the Phosphorylated Ribosomal Protein S6 (RPS6) in cell lysates, THP-1 cells (Human Acute Monocytic Leukemia) are purchased from ATCC (Manassas, VA) and maintained in RPMI with 10% FBS (Gibco/Life Technologies, Carlsbad, CA). For the assay, THP-1 cells are serum starved overnight in RPMI, then plated in RPMI (2×10^5 cells/well in […]) into 96-well flat-bottom tissue culture treated plates (Corning, Corning, NY), in the presence or absence of a concentration range of test compounds. Covered plates are incubated for 2 hours at 37° C., 5% CO2 then treated with or without 10 nM MCP-1(MYBioSource, San Diego, CA) for 15 minutes at 37° C., 5% CO2. Plates are centrifuged at 1600 RPM and supernatants are removed. Cells are lysed in Lysis Buffer (Cell Signaling, Danvers, MA) with Protease Inhibitor (Calbiochem/EMD, Germany), PMSF (Sigma, St Louis MO), HALTS (Thermo Fisher, Rockford, IL) for 30 min on wet ice. Cell lysates are frozen at −80° C. before testing. The lysates are tested in the Human/Mouse/Rat Phospho-RPS6 ELISA (R&D Systems, Inc. Minn, MN). The plate is measured using a microplate reader (SpectraMax M5—Molecular Devices, LLC Sunnyvale, CA) set to 450 nm with a wavelength correction of 540. IC50 determination is performed by fitting the curve of inhibitor percent inhibition versus the log of the inhibitor concentration using the GraphPad Prism 5.0 software.
The compounds of the Examples were tested in the assays described in Examples A, B and C and found to have the IC50s are shown in Tables A1, A2, A3 and A4.

Experiment [2] has as its target PI3Kδ (p1106/p85a) Recombinant Human Protein (Homo sapiens (Human), UniProt O00329). As to the kind of experiment: PI3Kδ scintillation proximity assay. It is filed as biochemical. The settings on record: scintillation proximity assay, recombinant human PI3Kδ. On the technique in general: In a scintillation proximity assay essentially only radioactivity close to the scintillant gives light.

In experiment [3] the target is PI3Kγ (p110γ) Recombinant Human Protein (Homo sapiens (Human), UniProt P48736). Nature of the experiment: PI3K-γ scintillation proximity assay. It is filed as biochemical. To be noted: scintillation proximity assay, recombinant human p110γ.

In general, IC50 refers to the concentration that inhibits the measured activity by half.

Where a name gives a salt, the structure may show the parent alone. Read-outs that look alike come from different tables or passages of the source.

PI3Kγ (p110γ) Recombinant Human Protein, sequence (P48736 whole entry): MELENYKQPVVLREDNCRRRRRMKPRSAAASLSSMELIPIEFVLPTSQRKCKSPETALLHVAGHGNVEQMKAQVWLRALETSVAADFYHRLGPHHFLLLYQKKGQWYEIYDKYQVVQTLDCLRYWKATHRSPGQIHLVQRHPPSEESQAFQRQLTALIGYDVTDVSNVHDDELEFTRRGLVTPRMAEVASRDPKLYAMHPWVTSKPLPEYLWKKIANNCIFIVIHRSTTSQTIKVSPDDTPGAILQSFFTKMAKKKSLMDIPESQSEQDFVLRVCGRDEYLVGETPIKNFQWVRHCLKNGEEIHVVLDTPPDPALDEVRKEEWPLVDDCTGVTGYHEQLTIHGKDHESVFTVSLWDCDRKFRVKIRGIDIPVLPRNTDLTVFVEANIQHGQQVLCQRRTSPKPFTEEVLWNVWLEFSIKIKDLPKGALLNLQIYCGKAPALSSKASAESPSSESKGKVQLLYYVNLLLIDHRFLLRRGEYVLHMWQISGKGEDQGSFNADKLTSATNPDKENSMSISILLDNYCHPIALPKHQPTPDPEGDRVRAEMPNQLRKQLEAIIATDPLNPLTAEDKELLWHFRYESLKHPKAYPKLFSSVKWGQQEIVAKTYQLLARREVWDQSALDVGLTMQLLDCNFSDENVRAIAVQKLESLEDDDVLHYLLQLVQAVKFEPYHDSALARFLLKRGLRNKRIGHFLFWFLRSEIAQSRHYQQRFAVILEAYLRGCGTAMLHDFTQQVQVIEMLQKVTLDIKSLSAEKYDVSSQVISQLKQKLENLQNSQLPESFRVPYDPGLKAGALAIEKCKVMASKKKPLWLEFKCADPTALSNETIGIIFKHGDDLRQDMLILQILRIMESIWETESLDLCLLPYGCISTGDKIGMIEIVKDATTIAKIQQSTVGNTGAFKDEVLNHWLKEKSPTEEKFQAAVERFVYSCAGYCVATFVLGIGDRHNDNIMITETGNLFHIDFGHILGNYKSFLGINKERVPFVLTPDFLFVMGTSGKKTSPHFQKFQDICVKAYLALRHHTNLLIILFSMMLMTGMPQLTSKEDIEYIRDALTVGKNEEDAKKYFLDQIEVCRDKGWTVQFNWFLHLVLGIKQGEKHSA
PI3Kδ (p1106/p85a) Recombinant Human Protein, sequence (O00329 whole entry): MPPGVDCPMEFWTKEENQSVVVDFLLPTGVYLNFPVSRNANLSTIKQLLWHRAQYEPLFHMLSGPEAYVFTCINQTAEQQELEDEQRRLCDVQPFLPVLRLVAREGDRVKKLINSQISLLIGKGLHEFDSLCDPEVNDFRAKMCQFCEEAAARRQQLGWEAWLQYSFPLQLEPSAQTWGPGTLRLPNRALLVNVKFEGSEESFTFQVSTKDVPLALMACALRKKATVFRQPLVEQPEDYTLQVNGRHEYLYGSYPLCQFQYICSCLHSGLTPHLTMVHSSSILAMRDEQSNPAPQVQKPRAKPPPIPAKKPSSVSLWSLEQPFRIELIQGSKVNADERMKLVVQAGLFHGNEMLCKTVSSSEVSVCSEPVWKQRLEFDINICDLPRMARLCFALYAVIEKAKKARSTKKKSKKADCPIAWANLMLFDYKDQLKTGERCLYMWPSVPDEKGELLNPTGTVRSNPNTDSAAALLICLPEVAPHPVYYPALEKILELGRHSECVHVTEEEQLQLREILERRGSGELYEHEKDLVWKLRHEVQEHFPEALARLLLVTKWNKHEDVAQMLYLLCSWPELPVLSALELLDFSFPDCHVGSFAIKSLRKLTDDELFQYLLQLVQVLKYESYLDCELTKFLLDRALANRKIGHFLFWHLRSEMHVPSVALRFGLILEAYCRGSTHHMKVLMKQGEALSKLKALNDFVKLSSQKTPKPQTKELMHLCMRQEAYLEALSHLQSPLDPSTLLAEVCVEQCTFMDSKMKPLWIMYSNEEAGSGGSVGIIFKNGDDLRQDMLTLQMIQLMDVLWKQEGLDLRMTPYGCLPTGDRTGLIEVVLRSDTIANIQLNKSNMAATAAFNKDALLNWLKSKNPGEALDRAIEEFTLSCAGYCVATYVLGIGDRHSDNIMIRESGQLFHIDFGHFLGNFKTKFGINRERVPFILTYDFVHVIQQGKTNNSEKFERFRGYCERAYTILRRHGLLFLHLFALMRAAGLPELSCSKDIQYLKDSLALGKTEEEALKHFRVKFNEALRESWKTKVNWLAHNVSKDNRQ
PI3Kδ (p1106/p85a) Recombinant Human Protein, sequence (P27986 whole entry partner): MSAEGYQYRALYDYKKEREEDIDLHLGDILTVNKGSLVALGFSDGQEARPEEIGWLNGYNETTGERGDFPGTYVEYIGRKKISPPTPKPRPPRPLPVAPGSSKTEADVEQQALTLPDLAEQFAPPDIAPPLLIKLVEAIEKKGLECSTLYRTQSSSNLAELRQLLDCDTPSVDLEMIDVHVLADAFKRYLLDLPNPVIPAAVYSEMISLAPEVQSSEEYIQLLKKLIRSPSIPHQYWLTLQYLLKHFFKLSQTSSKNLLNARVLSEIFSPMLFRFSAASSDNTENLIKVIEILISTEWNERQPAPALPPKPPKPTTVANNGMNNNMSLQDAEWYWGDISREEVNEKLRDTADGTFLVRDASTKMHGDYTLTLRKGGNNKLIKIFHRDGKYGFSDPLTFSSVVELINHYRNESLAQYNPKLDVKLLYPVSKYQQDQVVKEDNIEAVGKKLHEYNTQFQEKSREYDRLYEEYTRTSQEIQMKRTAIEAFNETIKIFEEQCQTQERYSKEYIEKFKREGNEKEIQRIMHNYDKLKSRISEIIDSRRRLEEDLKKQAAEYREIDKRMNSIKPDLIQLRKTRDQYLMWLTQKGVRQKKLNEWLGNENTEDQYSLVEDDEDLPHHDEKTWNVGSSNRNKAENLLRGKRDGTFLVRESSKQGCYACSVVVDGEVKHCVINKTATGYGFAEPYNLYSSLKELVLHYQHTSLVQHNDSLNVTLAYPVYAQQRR

On to `Cc1ccc(C(O)(C(N)=O)C(F)(F)F)cc1-c1cnc(N)c(C2CN(S(=O)(=O)c3cnn(C)c3)C2)n1` (single isomer, unassigned) [Example 107, 2-(3-(5-Amino-6-(1-((1-methyl-1H-pyrazol-4-yl)sulfonyl)azetidin-3-yl)pyrazin-2-yl)-4-methylphenyl)-3,3,3-trifluoro-2-hydroxypropanamide, trifluoroacetate Salt], for which the concentration for half-maximal inhibition (IC50) in experiment [1] (Homo sapiens, Table A4) fell in the range of 500 to 1000 nM.
As for `CCOC(=O)C1CC(c2nc(-c3cc(C(O)(C(N)=O)C(F)(F)F)ccc3C)cnc2N)C1` (single isomer, unassigned) [Example 109, Ethyl 3-(3-amino-6-(5-(3-amino-1,1,1-trifluoro-2-hydroxy-3-oxopropan-2-yl)-2-methylphenyl)pyrazin-2-yl)cyclobutane-1-carboxylate], the IC50 was more than 1000 nM in experiment [1] (Table A4) and 100 to 500 nM in experiment [2] (Table A4).
Take `Cc1ccc(C(O)(C(N)=O)C(F)(F)F)cc1-c1cnc(N)c(C(=O)N[C@H]2CC[C@H](O)CC2)n1` (stereo partly shown) [Example 3, 3-amino-6-(5-(3-amino-1,1,1-trifluoro-2-hydroxy-3-oxopropan-2-yl)-2-methylphenyl)-N-((1r,4r)-4-hydroxycyclohexyl)pyrazine-2-carboxamide trifluoroacetate]: the IC50 in experiment [1] (Table A1), in experiment [3] (Table A1) and in experiment [2] (Table A1) was less than 100 nM throughout.
As to `Cc1ccc(C(O)(C(N)=O)C(F)(F)F)cc1-c1cnc(N)c(C(=O)N[C@H]2CC[C@](C)(O)CC2)n1` (stereo partly shown) [Example 17, 3-amino-6-(5-(3-amino-1,1,1-trifluoro-2-hydroxy-3-oxopropan-2-yl)-2-methylphenyl)-N-((1r,4r)-4-hydroxy-4-methylcyclohexyl)pyrazine-2-carboxamide trifluoroacetate], the IC50 in experiment [1] (Table A1), in experiment [3] (Table A1) and in experiment [2] (Table A1) was less than 100 nM each time.
Consider `Cc1ccc(C(O)(C(N)=O)C(F)(F)F)cc1-c1cnc(N)c(C(=O)N[C@H]2CC[C@@](O)(C(F)(F)F)CC2)n1` (stereo partly shown) [Example 18, 3-amino-6-(5-(3-amino-1,1,1-trifluoro-2-hydroxy-3-oxopropan-2-yl)-2-methylphenyl)-N-((1r,4r)-4-hydroxy-4-(trifluoromethyl)cyclohexyl)pyrazine-2-carboxamide trifluoroacetate], for which the IC50 in experiment [1] (Table A1), in experiment [3] (Table A1) and in experiment [2] (Table A1) was less than 100 nM each time.
On to `Cc1ccc(C(O)(C(N)=O)C(F)(F)F)cc1-c1cnc(N)c(C(=O)N[C@H]2CC[C@H](C(C)(C)O)CC2)n1` (stereo partly shown) [Example 19, 3-amino-6-(5-(3-amino-1,1,1-trifluoro-2-hydroxy-3-oxopropan-2-yl)-2-methylphenyl)-N-((1r,4r)-4-(2-hydroxypropan-2-yl)cyclohexyl)pyrazine-2-carboxamide trifluoroacetate], for which the IC50 in experiment [1] (Table A1), in experiment [3] (Table A1) and in experiment [2] (Table A1) was less than 100 nM throughout.
For `CO[C@H]1CC[C@H](NC(=O)c2nc(-c3cc(C(O)(C(N)=O)C(F)(F)F)ccc3C)cnc2N)CC1` (stereo partly shown) [Example 22, 3-amino-6-(5-(3-amino-1,1,1-trifluoro-2-hydroxy-3-oxopropan-2-yl)-2-methylphenyl)-N-((1r,4r)-4-methoxycyclohexyl)pyrazine-2-carboxamide trifluoroacetate], the IC50 in experiment [1] (Table A1), in experiment [3] (Table A1) and in experiment [2] (Table A1) was less than 100 nM throughout.
With `COC[C@H]1CCN1C(=O)c1nc(-c2cc(C(O)(C(N)=O)C(F)(F)F)ccc2C)cnc1N` (stereo partly drawn) [Example 26, 2-(3-(5-amino-6-((R)-2-(methoxymethyl)azetidine-1-carbonyl)pyrazin-2-yl)-4-methylphenyl)-3,3,3-trifluoro-2-hydroxypropanamide], the IC50 is 100 to 500 nM in experiment [1] (Homo sapiens, Table A1); less than 100 nM in experiment [3] (Table A1); less than 100 nM in experiment [2] (Table A1).
As to `Cc1ccc(C(O)(C(N)=O)C(F)F)cc1-c1cnc(N)c(C(=O)NC(C)C)n1` (stereo not shown) [Example 31], the IC50 in experiment [1] (Table A1), in experiment [3] (Table A1) and in experiment [2] (Table A1) was less than 100 nM each time.
With `CC(=O)NCC(O)(c1ccc(C)c(-c2cnc(N)c(C(=O)NC(C)C)n2)c1)C(F)(F)F` (stereo not shown) [Example 39, 6-(5-(3-Acetamido-1,1,1-trifluoro-2-hydroxypropan-2-yl)-2-methylphenyl)-3-amino-N-isopropylpyrazine-2-carboxamide trifluoroacetate], the half-inhibitory concentration (IC50) was 100 to 500 nM in experiment [1] (Homo sapiens, Table A1); less than 100 nM in experiment [3] (Table A1); less than 100 nM in experiment [2] (Table A1).
`Cc1ccc(C(O)(CNC(=O)CF)C(F)(F)F)cc1-c1cnc(N)c(C(=O)NC(C)C)n1` (stereo not shown) [Example 40, 3-Amino-N-isopropyl-6-(2-methyl-5-(1,1,1-trifluoro-3-(2-fluoroacetamido)-2-hydroxypropan-2-yl)phenyl)pyrazine-2-carboxamide trifluoroacetate]: the IC50 was 100 to 500 nM in experiment [1] (Homo sapiens, Table A1); less than 100 nM in experiment [3] (Table A1); less than 100 nM in experiment [2] (Table A1).
As for `Cc1ccc(C(O)(CNC(=O)CC#N)C(F)(F)F)cc1-c1cnc(N)c(C(=O)NC(C)C)n1` (stereo not shown) [Example 42, 3-Amino-6-(5-(3-(2-cyanoacetamido)-1,1,1-trifluoro-2-hydroxypropan-2-yl)-2-methylphenyl)-N-isopropylpyrazine-2-carboxamide trifluoroacetate], the IC50 is 100 to 500 nM in experiment [1] (Homo sapiens, Table A1); less than 100 nM in experiment [3] (Table A1); less than 100 nM in experiment [2] (Table A1).
For the molecule `CCCc1nc(-c2cc(C(O)(C(N)=O)C(F)(F)F)ccc2C)cnc1N` (stereo not shown) [Example 45, 2-(3-(5-amino-6-propylpyrazin-2-yl)-4-methylphenyl)-3,3,3-trifluoro-2-hydroxypropanamide], the IC50 is 100 to 500 nM in experiment [1] (Homo sapiens, Table A2); less than 100 nM in experiment [3] (Table A2); 100 to 500 nM in experiment [2] (Table A2).
As to `Cc1ccc(C(O)(C(N)=O)C(F)(F)F)cc1-c1cnc(N)c(C#CC(C)C)n1` (stereo not shown) [Example 49, 2-(3-(5-amino-6-(3-methylbut-1-ynyl)pyrazin-2-yl)-4-methylphenyl)-3,3,3-trifluoro-2-hydroxypropanamide], the IC50 in experiment [1] (Homo sapiens, Table A2) is 100 to 500 nM; in experiment [3] (Table A2) it was less than 100 nM; in experiment [2] (Table A2) it was less than 100 nM.
For `Cc1ccc(C(O)(C(N)=O)C(F)(F)F)cc1-c1cnc(N)c(C#Cc2ccn[nH]2)n1` (stereo not shown) [Example 52, 2-(3-(6-((1H-pyrazol-5-yl)ethynyl)-5-aminopyrazin-2-yl)-4-methylphenyl)-3,3,3-trifluoro-2-hydroxypropanamide], the IC50 is 100 to 500 nM in experiment [1] (Homo sapiens, Table A2); less than 100 nM in experiment [3] (Table A2); less than 100 nM in experiment [2] (Table A2).
In the case of `Cc1ccc(C(O)(C(N)=O)C(F)(F)F)cc1-c1cnc(N)c(C#Cc2cncn2C)n1` (stereo not shown) [Example 53, 2-(3-(5-amino-6-((1-methyl-1H-imidazol-5-yl)ethynyl)pyrazin-2-yl)-4-methylphenyl)-3,3,3-trifluoro-2-hydroxypropanamide], the values for the IC50 in experiment [1] (Table A2), in experiment [3] (Table A2) and in experiment [2] (Table A2) were 100 to 500 nM, less than 100 nM and less than 100 nM, respectively.
With `Cc1ncc(-c2nc(-c3cc(C(O)(C(N)=O)C(F)(F)F)ccc3C)cnc2N)o1` (stereo not shown) [Example 70, 2-(3-(5-amino-6-(2-methyloxazol-5-yl)pyrazin-2-yl)-4-methylphenyl)-3,3,3-trifluoro-2-hydroxypropanamide trifluoroacetate], the IC50 is less than 100 nM in experiment [1] (Homo sapiens, Table A3); less than 100 nM in experiment [3] (Table A3); less than 100 nM in experiment [2] (Table A3).
In the case of `Cc1ncc(-c2nc(-c3cc(C(O)(C(N)=O)C(F)(F)F)ccc3C)cnc2N)s1` (stereo not shown) [Example 72, 2-(3-(5-amino-6-(2-methylthiazol-5-yl)pyrazin-2-yl)-4-methylphenyl)-3,3,3-trifluoro-2-hydroxypropanamide trifluoroacetate], in experiment [1] (Homo sapiens, Table A3), the IC50 was less than 100 nM.

(Values after US20250388553A1 (Incyte Corporation, priority 2018, published 2025).)
